Assay results: patent publication US4895842A, “Phenylalanine derivative and proteinase inhibitor” (Shosuke Okamoto, priority 1985, dated 1990)
Where a name gives a salt, the structure may show the parent alone. Read-outs that look alike come from different tables or passages of the source.

Legend:
[1] = molecular target: T1, bovine thrombin (Bos taurus, UniProt P00735); test: Antithrombin activity: inhibition of S-2238 decomposition; format: biochemical
Method in brief: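 Inhibitor in 0.05 M Tris-HCl, pH 8.3, preincubated with S-2238 (0.2 mM stock) for 5 min at 37 °C. Bovine thrombin (0.2 unit/ml stock) then added, and p-nitroaniline release followed at 405 nm by initial velocity at 37 °C. I50 is the concentration halving the rate.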

[2] = molecular target: T2, human plasmin (Homo sapiens, UniProt P00747); test: biochemical; conditions: read-out: Plasmin S-2251 (I50)
Method in brief: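 Inhibitor in 0.05M Tris-HCl buffer, pH 7.4, was incubated with human plasmin added at 0.2 casein unit/ml (stock) at 37° C for 4 minutes, then stopped with 50% acetic acid. I50 (μmol) is the inhibitor concentration giving half the absorbance obtained without inhibitor.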

[3] = molecular target: T2, human plasmin; test: Antiplasmin activity: inhibition of fibrin decomposition; format: biochemical; conditions: read-out: Plasmin Fibrin (I50)
Method in brief: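 Inhibitor in 0.18 M borate–physiological saline buffer, pH 7.4, received bovine fibrinogen (0.2% solution), human plasmin (0.3 casein unit/ml solution) and bovine thrombin (50 unit/ml solution) at 37 °C. Time for the resulting fibrin clot to dissolve was recorded.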

[4] = molecular target: human plasma kallikrein (Homo sapiens, UniProt P03952); test: Anti-plasma kallikrein activity: inhibition of S-2302 decomposition; format: biochemical; conditions: S-2302 substrate, read-out: Plasma Kallikrein S-2302 (I50)
Method: Determination of inhibition activity for S-2302 decomposition
An inhibitor sample is dissolved in a 0.05M Tris-hydrochloric acid buffer solution (pH=7.8) to make the total volume to 400 μl. To this solution, 50 μl of a 2 mM S-2302 solution is added and the mixture is incubated at a temperature of 37° C. for 5 minutes in a constant temperature bath. Then, 50 μl of a 0.12 unit/ml human plasma kallikrein is added and the mixture is incubated at a temperature of 37° C. for 5 minutes. Thereafter, 50 μl of 50% acetic acid is added to terminate the reaction. The absorbance of the p-nitroaniline formed in the reaction mixture is measured at 405 nm. Thus, the concentration I50 (μmol) of the inhibitor sample, at which the absorbance is one half (i.e., 1/2) of that obtained in the absence of the inhibitor sample, is determined.

[5] = molecular target: human urokinase (Homo sapiens, UniProt P00749); test: biochemical; conditions: S-2444 substrate, read-out: Urokinase S-2444 (I50)
Method in brief: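 Inhibitor in 0.05M Tris-HCl pH 8.8 preincubated 5 min at 37° C with S-2444 (1 mM solution added), then human urokinase (500 unit/ml solution) added for 5 min at 37° C; stopped with 50% acetic acid. p-Nitroaniline read at 405 nm; I50 is concentration halving absorbance versus no inhibitor.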

[6] = molecular target: T3, bovine trypsin (Bos taurus, UniProt P00760); test: Antitrypsin activity: inhibition of S-2238 decomposition; format: biochemical; conditions: S-2238 substrate, read-out: Trypsin S-2238 (I50)
T3 sequence (P00760 24-246): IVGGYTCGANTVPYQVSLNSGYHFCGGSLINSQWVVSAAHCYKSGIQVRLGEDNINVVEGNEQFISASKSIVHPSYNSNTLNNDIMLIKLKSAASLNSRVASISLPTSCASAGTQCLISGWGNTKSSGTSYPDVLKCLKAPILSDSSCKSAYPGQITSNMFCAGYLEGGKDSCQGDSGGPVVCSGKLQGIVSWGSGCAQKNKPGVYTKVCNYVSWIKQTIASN
Method: Determination of inhibition activity against S-2238 decomposition
An inhibitor sample is dissolved in a 0.05M Tris-imidazole buffer solution (pH=8.1) and 125 μl of a 1 mM S-2238 solution is added to make the total volume to 1.20 ml. The mixture is incubated at a temperature of 37° C. for 5 minutes in a constant temperature bath. To this mixture, 0.05 ml of bovine trypsin is added and the absorbance, at 405 nm, of the p-nitroaniline formed per minute is determined at a temperature of 37° C. by using the so-called initial velocity method. Thus, the concentration I50 (μmol) of the inhibitor sample, at which the absorbance is one half (i.e., 1/2) of that obtained in the absence of the inhibitor sample, is determined.

[7] = molecular target: T1, bovine thrombin; test: Antithrombin activity: inhibition of fibrin formation from fibrinogen; format: biochemical
Method in brief: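 Inhibitor in 0.18M borate-saline buffer pH 7.4 mixed with 0.2% bovine fibrinogen and 4 unit/ml bovine thrombin (stock levels) at 37° C; clotting time measured. I50 is the inhibitor concentration doubling coagulation time versus uninhibited control.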

[8] = Table 2, S-2238 substrate, pH 8.3, 37° C., read-out: Thrombin S-2238 (I50)
[9] = Table 2, concentration at which fibrin dissolution time is extended twice, pH 7.4, 37° C.
[10] = Table 2, 50% inhibition concentration, S-2251 substrate, pH 7.4, 37° C.
[11] = read-out: Thrombin Fibrinogen (I50), Table 2, concentration at which coagulation time of bovine fibrinogen is extended twice, pH 7.4, 37° C.

T2 sequence (P00747 581-810 limits assumed): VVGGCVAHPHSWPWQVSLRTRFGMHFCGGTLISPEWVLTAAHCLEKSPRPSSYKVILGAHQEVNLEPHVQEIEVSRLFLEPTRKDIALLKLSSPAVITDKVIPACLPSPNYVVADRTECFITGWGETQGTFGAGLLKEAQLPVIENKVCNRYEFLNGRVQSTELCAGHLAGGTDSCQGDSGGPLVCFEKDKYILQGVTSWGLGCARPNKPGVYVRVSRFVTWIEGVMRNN
T2 sequence (P00747 97-580 partner limits assumed): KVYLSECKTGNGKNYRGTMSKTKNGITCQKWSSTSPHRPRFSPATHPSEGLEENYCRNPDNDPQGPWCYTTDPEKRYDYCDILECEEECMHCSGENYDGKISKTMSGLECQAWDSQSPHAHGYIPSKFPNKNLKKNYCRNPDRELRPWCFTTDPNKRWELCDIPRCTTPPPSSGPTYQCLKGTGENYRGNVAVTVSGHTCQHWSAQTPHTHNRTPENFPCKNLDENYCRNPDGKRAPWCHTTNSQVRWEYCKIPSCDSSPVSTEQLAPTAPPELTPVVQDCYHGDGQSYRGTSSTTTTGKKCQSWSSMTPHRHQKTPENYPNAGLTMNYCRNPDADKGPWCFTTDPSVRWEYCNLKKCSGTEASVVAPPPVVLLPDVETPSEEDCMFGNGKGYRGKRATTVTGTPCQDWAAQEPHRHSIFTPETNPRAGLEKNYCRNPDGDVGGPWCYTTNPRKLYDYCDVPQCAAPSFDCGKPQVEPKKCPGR
Chain of human plasma kallikrein (P03952 391-638 limits assumed): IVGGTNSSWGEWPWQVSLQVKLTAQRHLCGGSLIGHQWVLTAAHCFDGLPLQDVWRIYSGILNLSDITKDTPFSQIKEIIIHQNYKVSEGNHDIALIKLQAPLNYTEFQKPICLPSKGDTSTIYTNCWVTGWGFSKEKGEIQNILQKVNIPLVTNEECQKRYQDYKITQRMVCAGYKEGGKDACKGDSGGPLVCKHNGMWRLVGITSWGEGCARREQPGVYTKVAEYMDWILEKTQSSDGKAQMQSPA
Chain of human plasma kallikrein (P03952 20-390 partner limits assumed): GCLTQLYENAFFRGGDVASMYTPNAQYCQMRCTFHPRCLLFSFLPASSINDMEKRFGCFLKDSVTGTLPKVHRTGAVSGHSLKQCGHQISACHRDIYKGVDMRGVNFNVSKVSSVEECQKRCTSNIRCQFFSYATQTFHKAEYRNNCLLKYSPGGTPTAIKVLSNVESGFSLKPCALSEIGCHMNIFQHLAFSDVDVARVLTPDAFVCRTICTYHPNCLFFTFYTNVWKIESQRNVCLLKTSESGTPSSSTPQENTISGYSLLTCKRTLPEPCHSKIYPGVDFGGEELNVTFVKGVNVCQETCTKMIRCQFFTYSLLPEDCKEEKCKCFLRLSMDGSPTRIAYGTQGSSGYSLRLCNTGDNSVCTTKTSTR

Compound | IC50 [1, 8] [µM] | IC50 [2] [µM] | IC50 [3, 9] [µM] | IC50 ([4]; Table 2, pH 7.8, 37° C.) [µM] | IC50 ([5]; Table 2, pH 8.8, 37° C.) [µM] | IC50 ([6]; Table 2, pH 8.1, 37° C.) [µM] | IC50 [7] [µM] | IC50 [2, 10] [µM] | IC50 [7, 11] [µM] | IC50 [1] [µM] | IC50 ([1]; Table 4, comparative compounds of Table 3, S-2238 substrate, pH 8.3, read-out: Thrombin S-2238 (I50)) [µM] | IC50 ([2]; Table 4, comparative compounds of Table 3, S-2251 substrate, pH 7.4, 37° C.) [µM] | IC50 ([3]; Table 4, comparative compounds of Table 3, fibrin dissolution time extended twice) [µM] | IC50 ([4]; Table 4, comparative compounds of Table 3, pH 7.8) [µM] | IC50 ([5]; Table 4, comparative compounds of Table 3, pH 8.8) [µM] | IC50 ([6]; Table 4, comparative compounds of Table 3, pH 8.1) [µM] | IC50 ([7]; Table 4, comparative compounds of Table 3, coagulation time extended twice, read-out: Thrombin Fibrinogen (I50)) [µM]
CC1CCC(NC(=O)[C@H](Cc2ccc(OCc3ccccc3)cc2)NC(=O)c2ccc(CN)cc2)CC1 (stereo partly shown) [compound 38] | > 50 | 2.3 | 0.41 | 60 | > 400 | 2.5 | > 50 |  |  |  |  |  |  |  |  |  | 
CCOC(=O)C1CCCC(NC(=O)[C@H](Cc2ccc(OCc3ccc(F)cc3)cc2)NC(=O)c2ccc(CN)cc2)C1 (stereo partly shown) [compound 105] | > 50 |  | 2.6 | 40 | > 200 | 2.5 |  | 4.2 | > 50 |  |  |  |  |  |  |  | 
NC[C@H]1CC[C@H](C(=O)N[C@@H](Cc2ccc(OCc3ccccc3)cc2)C(=O)Nc2cccc([N+](=O)[O-])c2)CC1 [compound 44] | > 500 | 3.8 | 0.95 | 1.2 | 60 | 1.1 | > 100 |  |  |  |  |  |  |  |  |  | 
CC(=O)c1ccc(NC(=O)[C@H](Cc2ccc(OCC(=O)c3ccccc3)cc2)NC(=O)[C@H]2CC[C@H](CN)CC2)cc1 [compound 30] | 280 | 1.4 | 0.95 | 0.37 | 80 | 1 | > 50 |  |  |  |  |  |  |  |  |  | 
CC(=O)c1ccc(NC(=O)[C@H](Cc2ccc(OCc3ccncc3)cc2)NC(=O)[C@H]2CC[C@H](CN)CC2)cc1 [compound 68] | > 400 | 1.2 | 0.65 | 1.2 | 25 | 1 | > 500 |  |  |  |  |  |  |  |  |  | 
NC[C@H]1CC[C@H](C(=O)NC(Cc2ccc(N)cc2)C(=O)Nc2ccc(C(=O)c3ccccc3)cc2)CC1 (stereo partly shown) [compound 33] | > 200 | 13 | 12 | 8.5 | 11 | 0.52 | > 200 |  |  |  |  |  |  |  |  |  | 
CC1CCCC(NC(=O)[C@H](Cc2ccc(OCc3ccccc3)cc2)NC(=O)c2ccc(CN)cc2)C1C (stereo partly shown) [compound 82] | > 50 |  | 2.9 | 40 | > 400 | 7 |  | 8.5 | > 25 |  |  |  |  |  |  |  | 
NCc1ccc(C(=O)N[C@@H](Cc2ccc(OCc3ccccc3)cc2)C(=O)N2CCC(C(=O)c3ccccc3)CC2)cc1 [compound 76] | > 50 | 5.8 | 2.4 | > 200 | > 250 | 38 | > 25 |  |  |  |  |  |  |  |  |  | 
NC[C@H]1CC[C@H](C(=O)N[C@@H](Cc2ccc(OCc3ccccc3)cc2)C(=O)Nc2ccc(S(N)(=O)=O)cc2)CC1 [Compound No. 47, N-(trans-4-aminomethylcyclohexylcarbonyl)-4-benzyloxy-L-phenylalanine 4-sulfamoylanilide hydrochloride] | > 400 | 8.9 | 1 | 4.5 | 130 | 7.5 | > 200 |  |  |  |  |  |  |  |  |  | 
NCc1ccc(C(=O)N[C@@H](Cc2ccc(OCc3ccccc3)cc2)C(=O)NCCc2ccccc2)cc1 [compound 78] |  | 3.8 | 0.75 | 100 | > 200 | 9.2 | > 50 |  |  | > 50 |  |  |  |  |  |  | 
NCc1ccc(C(=O)NC(Cc2ccccc2)C(=O)N2CCCCC2)cc1 (stereo not shown) [Table 3 Compound No. 3, reference compound] |  |  |  |  |  |  |  |  |  |  | > 1000 | > 1000 | > 1000 | > 1000 | > 1000 | > 300 | > 1000
CC(=O)c1ccc(NC(=O)[C@H](Cc2ccc(OCc3ccccc3)cc2)NC(=O)[C@H]2CC[C@H](CN)CC2)cc1 [Compound No. 3, N-(trans-4-aminomethylcyclohexylcarbonyl)-4-benzyloxy-L-phenylalanine 4-acetylanilide] | > 200 | 1.8 | 0.4 | 0.63 | 31 | 0.77 | > 100 |  |  |  |  |  |  |  |  |  | 
NC[C@H]1CC[C@H](C(=O)N[C@@H](Cc2ccc(OCc3ccccc3)cc2)C(=O)Nc2cccc(Cl)c2)CC1 [compound 36] |  | 1.7 | 0.41 | 1.2 | 100 | 0.82 | > 50 |  |  | > 125 |  |  |  |  |  |  | 

Further compounds by falling IC50 [3, 9], results first:

IC50 [1, 8] [µM] | IC50 [2] [µM] | IC50 [3, 9] [µM] | IC50 ([4]; Table 2, pH 7.8, 37° C.) [µM] | IC50 ([5]; Table 2, pH 8.8, 37° C.) [µM] | IC50 ([6]; Table 2, pH 8.1, 37° C.) [µM] | IC50 [7] [µM] | IC50 [2, 10] [µM] | IC50 [7, 11] [µM] | IC50 [1] [µM] | IC50 ([1]; Table 4, comparative compounds of Table 3, S-2238 substrate, pH 8.3, read-out: Thrombin S-2238 (I50)) [µM] | IC50 ([2]; Table 4, comparative compounds of Table 3, S-2251 substrate, pH 7.4, 37° C.) [µM] | IC50 ([3]; Table 4, comparative compounds of Table 3, fibrin dissolution time extended twice) [µM] | IC50 ([4]; Table 4, comparative compounds of Table 3, pH 7.8) [µM] | IC50 ([5]; Table 4, comparative compounds of Table 3, pH 8.8) [µM] | IC50 ([6]; Table 4, comparative compounds of Table 3, pH 8.1) [µM] | IC50 ([7]; Table 4, comparative compounds of Table 3, coagulation time extended twice, read-out: Thrombin Fibrinogen (I50)) [µM] | Compound
> 100 | 0.95 | 0.35 | 0.42 | 23 | 0.97 | > 50 |  |  |  |  |  |  |  |  |  |  | CCOC(=O)c1ccc(COc2ccc(C[C@H](NC(=O)[C@H]3CC[C@H](CN)CC3)C(=O)Nc3ccc(C(C)=O)cc3)cc2)cc1 [compound 86]
> 200 | 1.6 | 0.32 | 1.2 | 78 | 2.5 | > 100 |  |  |  |  |  |  |  |  |  |  | NCC1CCC(C(=O)NC(Cc2ccc(OCc3cccc(Cl)c3)cc2)C(=O)Nc2cccc(S(N)(=O)=O)c2)CC1 (stereo not shown) [compound 93]
> 200 | 1.5 | 0.29 | 0.41 | 20 | 1.8 | > 50 |  |  |  |  |  |  |  |  |  |  | NC[C@H]1CC[C@H](C(=O)N[C@@H](Cc2ccc(OCc3ccc(Cl)c(Cl)c3)cc2)C(=O)Nc2ccncc2)CC1 [compound 127]
> 125 | 1.2 | 0.29 | 0.42 | 57 | 2.6 | > 50 |  |  |  |  |  |  |  |  |  |  | CC(=O)c1ccc(NC(=O)[C@H](Cc2ccc(OCc3cccc(C(F)(F)F)c3)cc2)NC(=O)[C@H]2CC[C@H](CN)CC2)cc1 [compound 55]
> 50 | 0.58 | 0.27 | 20 | > 200 | 0.43 | > 40 |  |  |  |  |  |  |  |  |  |  | CC1CCC(NC(=O)C(Cc2ccc(Oc3ccc([N+](=O)[O-])cc3)cc2)NC(=O)c2ccc(CN)cc2)CC1C (stereo not shown) [compound 109]
> 200 | 0.89 | 0.21 | 0.51 | 58 | 1.5 | > 50 |  |  |  |  |  |  |  |  |  |  | CC(=O)c1ccc(NC(=O)[C@H](Cc2ccc(OCc3ccccc3Cl)cc2)NC(=O)[C@H]2CC[C@H](CN)CC2)cc1 [compound 83]
> 200 | 1 | 0.19 | 0.45 | 35 | 1 | > 100 |  |  |  |  |  |  |  |  |  |  | CC(=O)c1ccc(NC(=O)[C@H](Cc2ccc(OCc3cccc([N+](=O)[O-])c3)cc2)NC(=O)[C@H]2CC[C@H](CN)CC2)cc1 [compound 54]
> 125 | 1.4 | 0.18 | 0.42 | 40 | 0.67 | > 250 |  |  |  |  |  |  |  |  |  |  | NC[C@H]1CC[C@H](C(=O)N[C@@H](Cc2ccc(OCc3ccccc3)cc2)C(=O)Nc2ccnc(Cl)c2)CC1 [Compound No. 59, N-(trans-4-aminomethylcyclohexylcarbonyl)-4-benzyloxy-L-phenylalanine 4-(2-chloro)pyridylamide hydrochloride]
> 400 | 0.69 | 0.16 | 3.5 | 320 | 1.3 | > 50 |  |  |  |  |  |  |  |  |  |  | CC1CCC(NC(=O)C(Cc2ccc(OCc3cccc(Cl)c3)cc2)NC(=O)C2CCC(CN)CC2)CC1C (stereo not shown) [compound 102]
